Assay: Stability of the compound during isolation
Type: physicochemical
Details: isolation from culture
Source text: Authors' possible answers (A) to the comments (C) raised by Reviewer #2.
This manuscript by Kudo et al. describes the combined application of in vitro CRIPS-Cas9 and Gibson assembly technology to edit type 1 modular PKSs. Authors […]
module deletion/insertion, reductive domains, stereochemistry of beta-hydroxyl group, and double modification (ER and KR) using rapamycin PKS as a model system. Although in vitro CIRPR/Cas9 system for refactoring of biosynthetic gene clusters in Streptomyces has been reported previously (mBio 6(6):e01714-15), this manuscript may be the first report to use CIRPR/Cas9 technology to edit the large modular PKSs.
We thank Reviewer #2 for the positive evaluation of our technology. Since the engineering […]
(C-1) Although the method used in this study seems promising to edit PKS efficiently, authors should present the complete structural data (e.g. 1D and 2D NMR) of all […]
(A-1) We have added NMR data for compounds 10, 11 , 12, 13, 15 and 16, whose yields were high enough allow their analysis by NMR. In addition, we confirmed the quantitative analysis of all compounds (Supplementary Table 3). […]
smaller m/z than that of 5 (Figs. A(d) and (e)). Multiple degradation products were detected (Fig. B) and those peaks were not detectable from crude extract before isolation.
We measured a NMR spectrum of the collected sample (ca 0.8 mg), however, the sample […]

## CO[C@H]1C[C@@H]2CC[C@@H](C)[C@@](O)(O2)C(=O)C(=O)N2CCCC[C@H]2C(=O)O[C@H]([C@H](C)C[C@@H]2CC[C@@H](O)[C@H](OC)C2)CC(=O)[C@H](C)/C=C(\C)[C@@H](O)[C@@H](OC)C(=O)[C@H](C)CC/C=C/C=C/C=C/1C [Compound 5, 23-demethyl rapamycin]
  Stability during isolation, in words: instability

## CO[C@@H]1C[C@H](C[C@@H](C)[C@@H]2CC(=O)[C@H](C)/C=C(\C)[C@@H](O)CC(=O)[C@H](C)/C=C(C)/C=C/C=C/C=C(\C)[C@H](O)C[C@@H]3CC[C@@H](C)[C@@](O)(O3)C(=O)C(=O)N3CCCC[C@H]3C(=O)O2)CC[C@H]1O [Compound 19, 27-demethoxy-16-O-demethyl-23,24-didehydro-rapamycin]
  Stability during isolation, in words: so unstable that we could not isolate it

Source: article PMC7419507, “In vitro Cas9-assisted editing of modular polyketide synthase genes to produce desired natural product derivatives” (Nature Communications, 2020)
